{"source": "patent US6911429B2", "about": "“Compositions and methods for treating cellular response to injury and other proliferating cell disorders regulated by hyaladherin and hyaluronans” (Transition Therapeutics Inc., priority 1999, dated 2005)", "key": {"[1]": {"test_system": "MDA231 cells", "experiment": "in vitro invasion of MDA231 cells", "format": "cell-based, human"}, "[2]": {"test_system": "RHAMMv4 overexpressing cells", "experiment": "podosome formation in RHAMMv4 overexpressing cells (cortactin marker)", "format": "cell-based", "details": "RHAMMv4 overexpression", "text": "(§1) To further illustrate the relationship between RHAMM, erk activity and podosome formation in transient stage cells, podosome formation is shown to be inhibited by inhibitors of erk activity. […] Overexpression of RHAMMv4 results in a sustained high production of podosomes, detected by the marker protein cortactin (A). […] Overexpression of RHAMMv4 enhances cell migration into wounds (D) compared to the parent 10T1/2 fibroblast line that produces little RHAMMv4 (E)."}, "[3]": {"test_system": "MDA231 human breast cancer cells", "experiment": "cell motility of MDA231 breast cancer cells", "format": "cell-based"}, "[4]": {"test_system": "RHAMMv4 overexpressing cells", "experiment": "cell migration into wounds / wound repair of RHAMMv4 overexpressing cells", "format": "cell-based", "text": "as §1"}, "[5]": {"test_system": "ND4 transgenic mice", "experiment": "ND4 transgenic mouse model of multiple sclerosis (demyelination clinical signs)", "format": "in vivo", "details": "10 mg/kg intraperitoneally three times per week", "procedure": "Briefly, transgenic mice (ND 4) bearing 70 copies of the transgene for DM20, a myelin proteolipid protein, were utilized for assignment of scores based upon clinical signs of demyelination. Clinical signs which were assessed included general shaking, seizures, head jerk, hind-limb and tail shiver, unsteadiness, wobbly gait and limp tail. Within each sign score between 0-4 was given: where zero score means absent and score 4 means constant and uncontrollable appearance of the sign of the disease. Experimental groups of mice were divided into 4; each group contained 5 animals: one normal, one ND 4 mouse untreated and three ND 4 mice treated with RHAMM mimetic—P-peptide. Animals were treated three times per week with 10 mg/kg of P-peptide intraperitonealy. Peptide was resuspended in 300 μl of PBS.\nThe severity of the clinical signs increase until maximum around 6 months with animals dying around 8 to 9 months of age. The clinical signs assessed include general shaking, seizures, head jerk, hind limb and tail shiver, wobbly gait and limp tail. The scale of zero (absence) to four (constant and uncontrollable movements) was used for each of the clinical signs. […]"}, "[6]": {"test_system": "NOD mice", "experiment": "NOD mouse model of type I diabetes mellitus", "format": "in vivo", "details": "5 mg/kg i.p. three times a week for 23 weeks", "procedure": "There are different colonies of NOD mice and there can be some variability between the colonies. The colony used develops the disease between 15-20 weeks of age and there is a 70-80% incidence of diabetes mellitus. The mice treated were divided into two groups of 10 animals; the first group being treated with P-16 peptide and the other group comprising of the control group, which was treated with saline. Once the NOD mice were 5 weeks old, the P-16 peptide was injected three times a week interperitoneally at a dose of 5 mg/kg for 23 weeks. The untreated mice and five mice from the treated group were sacrificed at 28 weeks of age. The remaining five mice from the treated group were taken off the peptide treatment at 28 weeks of age and were assessed for the disease after 16 weeks.\nThere are different colonies of NOD mice and there can be some variability between the colonies. The colony used develops the disease between 15-20 weeks of age and there is a 70-80% incidence of diabetes mellitus. The mice treated were divided into three groups of 10 animals; the first two groups being treated with S-3 and S-7 peptides, and the third group comprising of the control group, which was treated with saline. Once the NOD mice were 5 weeks old, the S-3 and S-7 peptides were injected three times a week intraperitoneally at a dose of 0.1 mg/kg for 23 weeks."}, "[7]": {"test_system": "EAE in SJL/J mice", "experiment": "EAE mouse model for multiple sclerosis", "format": "in vivo", "details": "5 mg/kg i.p. daily; failed to reach statistical significance", "procedure": "Acute EAE was induced by immunization of 3 months old SJL/J female mice (Jackson Lab.; Bar Harbor, Me.) with the MBP and PTX pertussis toxin. Each animal received a sub-cutaneous injection at tail base of 200 μg MBP in 0.1 ml of CFA and received an intravenous injection of 200 ng of PTX. Pertussis toxin was injected again 48 hours later. Mice (4 animals per group) were treated with one of the following treatments through intraperitoneal injections: P-32 peptide at a dose of 5 mg/kg daily; S-7 peptide at a dose of 0.1 mg/kg daily starting on the day of first immunization. Treatment was stopped at time of sacrifice. Mice were monitored daily from day 7 after immunization for clinical signs of EAE and were scored on a scale of 0 to 5. A score of 0 represented the absence of signs while a score of 5 was given to moribund animals."}, "[8]": {"experiment": "binding to hyaluronic acid (HA)", "text": "The present invention provides a method of similar sensitivity but which is cheaper and more reliable. The method is based on using HA binding partners discovered using the techniques described above for detecting RHAMM binding partners. Using a phage display library to bind to biotinylated HA permitted identification of five particular species of HA binding motifs described in SEQ. ID NOS: 6-10. This was accomplished by isolating phage that attached to HA which were further isolated, rescreened twice and recloned. The clones were then bound to biotinylated HA-sepharose beads and only those phage that could be released with unlabeled HA were retrieved, recloned and sequenced. Five clones comprising the sequences identified above were detected. These sequences all bind to HA and are useful for detecting HA in serum and tissues in an assay described below."}, "[9]": {"test_system": "excisional skin wound", "experiment": "rat punch biopsy excisional skin wound model", "format": "in vivo", "details": "local application"}, "[10]": {"test_system": "bleomycin-induced lung fibrosis", "experiment": "bleomycin-induced lung injury / fibrosis model", "format": "in vivo", "text": "As described in more detail below, the RHAMM peptide mimetics prevent these pathological events, particularly recruitment and activation of macrophages, from occurring following bleomycin-induced lung fibrosis (FIG. 32). In particular, the infiltration of inflammatory cells and local responses such as fibrosis is completely absent with treatment. […] Therefore, these reagents should be effective for treating lung diseases that involve recruiting macrophages and inflammatory cells, as well as fibrosis. FIG. 34 illustrates motility of BAL cells four days after injury in response to administration of RHAMM peptides. […] Values represent mean and standard error with three animals studied for each condition and at least 20 cells tracked per animal studied. Increased N-acetyl-β-glucosamimidase activity is a known marker for fibrosis in lung tissue. […] Briefly, bleomycin injury results in an increased glucosamimidase activity (* p<0.01 versus controls and saline animals). […] Values represent mean and standard error with five animals studied for each condition. FIG. 35B illustrates that mRNA of collagen type la in lungs harvested 4 days after injury is reduced in response to administration of HA binding Peptide A. Collagen type la is common indicator of fibrosis in lung tissue injury models as used throughout this invention. […] The data shown are representative of three independent experiments. The ability of HA binding peptides to inhibit fibrosis is further illustrated by histological analysis. FIG. 36 are micrographs from a histological analysis of lung tissue treated with and without HA binding Peptide A after bleomycin injury. Panels (a-c) show tissue after treatment with saline alone, and panels (d-f) show tissues injured by bleomycin treatment."}, "[11]": {"test_system": "human fibroblasts", "experiment": "velocity of cell locomotion of human fibroblasts on fibronectin", "format": "cell-based", "details": "0.1-50 ng/ml, 16 hrs", "procedure": "To quantify the effect of RHAMM sequence (amino acid residues 423-432; 423-432AA) to alter velocity of cell locomotion human fibroblasts were seeded on T-12.5 fibronectin coated flasks using A-MEM supplemented with glucose and 10% FBS. 2.5×10^4 cells were seeded and cells incubated for 4 hrs at 37° C. After incubation time cells were treated with increasing concentrations of RHAMM sequence peptide (423-432 AA, 0.1, 1.0, 5.0, 10 and 50 ng/ml) and cell locomotion was monitored over the period of 16 hrs on a 37° C. using 10× modulation objective (Zeiss, Germany) attached to a Zeiss Axiovert 100 inverted microscope equipped with Hoffman Modulation contrast optical filters (Greenvale, N.Y.). Cell images were captured with a CCD video camera module attached to a Hamamatsu CCD camera controller. Motility was assessed using Northern Exposure 2.9 image analysis software (Empix Imaging, Mississauga, Ontario). Nuclear displacement of 7-10 cells was measured and data were subjected to statistical analysis. Statistically significant (P<0.05) differences between means were assessed by the unpaired Student's T-test method, performed using Microsoft Excel '97 software."}, "[12]": {"test_system": "invasive cells", "experiment": "motility of invasive cells treated with RHAMM exon peptides or antibodies (FIG. 16)", "format": "cell-based", "details": "P<0.001 for peptide vs scrambled peptide", "text": "This effect is quantified in the graph shown in 16C and is highly significant (P<0.001, student's T test)."}, "[13]": {"biological_target": "RHAMM binding to fibronectin (Homo sapiens, UniProt P02751)", "sequence (P02751 32-2477)": "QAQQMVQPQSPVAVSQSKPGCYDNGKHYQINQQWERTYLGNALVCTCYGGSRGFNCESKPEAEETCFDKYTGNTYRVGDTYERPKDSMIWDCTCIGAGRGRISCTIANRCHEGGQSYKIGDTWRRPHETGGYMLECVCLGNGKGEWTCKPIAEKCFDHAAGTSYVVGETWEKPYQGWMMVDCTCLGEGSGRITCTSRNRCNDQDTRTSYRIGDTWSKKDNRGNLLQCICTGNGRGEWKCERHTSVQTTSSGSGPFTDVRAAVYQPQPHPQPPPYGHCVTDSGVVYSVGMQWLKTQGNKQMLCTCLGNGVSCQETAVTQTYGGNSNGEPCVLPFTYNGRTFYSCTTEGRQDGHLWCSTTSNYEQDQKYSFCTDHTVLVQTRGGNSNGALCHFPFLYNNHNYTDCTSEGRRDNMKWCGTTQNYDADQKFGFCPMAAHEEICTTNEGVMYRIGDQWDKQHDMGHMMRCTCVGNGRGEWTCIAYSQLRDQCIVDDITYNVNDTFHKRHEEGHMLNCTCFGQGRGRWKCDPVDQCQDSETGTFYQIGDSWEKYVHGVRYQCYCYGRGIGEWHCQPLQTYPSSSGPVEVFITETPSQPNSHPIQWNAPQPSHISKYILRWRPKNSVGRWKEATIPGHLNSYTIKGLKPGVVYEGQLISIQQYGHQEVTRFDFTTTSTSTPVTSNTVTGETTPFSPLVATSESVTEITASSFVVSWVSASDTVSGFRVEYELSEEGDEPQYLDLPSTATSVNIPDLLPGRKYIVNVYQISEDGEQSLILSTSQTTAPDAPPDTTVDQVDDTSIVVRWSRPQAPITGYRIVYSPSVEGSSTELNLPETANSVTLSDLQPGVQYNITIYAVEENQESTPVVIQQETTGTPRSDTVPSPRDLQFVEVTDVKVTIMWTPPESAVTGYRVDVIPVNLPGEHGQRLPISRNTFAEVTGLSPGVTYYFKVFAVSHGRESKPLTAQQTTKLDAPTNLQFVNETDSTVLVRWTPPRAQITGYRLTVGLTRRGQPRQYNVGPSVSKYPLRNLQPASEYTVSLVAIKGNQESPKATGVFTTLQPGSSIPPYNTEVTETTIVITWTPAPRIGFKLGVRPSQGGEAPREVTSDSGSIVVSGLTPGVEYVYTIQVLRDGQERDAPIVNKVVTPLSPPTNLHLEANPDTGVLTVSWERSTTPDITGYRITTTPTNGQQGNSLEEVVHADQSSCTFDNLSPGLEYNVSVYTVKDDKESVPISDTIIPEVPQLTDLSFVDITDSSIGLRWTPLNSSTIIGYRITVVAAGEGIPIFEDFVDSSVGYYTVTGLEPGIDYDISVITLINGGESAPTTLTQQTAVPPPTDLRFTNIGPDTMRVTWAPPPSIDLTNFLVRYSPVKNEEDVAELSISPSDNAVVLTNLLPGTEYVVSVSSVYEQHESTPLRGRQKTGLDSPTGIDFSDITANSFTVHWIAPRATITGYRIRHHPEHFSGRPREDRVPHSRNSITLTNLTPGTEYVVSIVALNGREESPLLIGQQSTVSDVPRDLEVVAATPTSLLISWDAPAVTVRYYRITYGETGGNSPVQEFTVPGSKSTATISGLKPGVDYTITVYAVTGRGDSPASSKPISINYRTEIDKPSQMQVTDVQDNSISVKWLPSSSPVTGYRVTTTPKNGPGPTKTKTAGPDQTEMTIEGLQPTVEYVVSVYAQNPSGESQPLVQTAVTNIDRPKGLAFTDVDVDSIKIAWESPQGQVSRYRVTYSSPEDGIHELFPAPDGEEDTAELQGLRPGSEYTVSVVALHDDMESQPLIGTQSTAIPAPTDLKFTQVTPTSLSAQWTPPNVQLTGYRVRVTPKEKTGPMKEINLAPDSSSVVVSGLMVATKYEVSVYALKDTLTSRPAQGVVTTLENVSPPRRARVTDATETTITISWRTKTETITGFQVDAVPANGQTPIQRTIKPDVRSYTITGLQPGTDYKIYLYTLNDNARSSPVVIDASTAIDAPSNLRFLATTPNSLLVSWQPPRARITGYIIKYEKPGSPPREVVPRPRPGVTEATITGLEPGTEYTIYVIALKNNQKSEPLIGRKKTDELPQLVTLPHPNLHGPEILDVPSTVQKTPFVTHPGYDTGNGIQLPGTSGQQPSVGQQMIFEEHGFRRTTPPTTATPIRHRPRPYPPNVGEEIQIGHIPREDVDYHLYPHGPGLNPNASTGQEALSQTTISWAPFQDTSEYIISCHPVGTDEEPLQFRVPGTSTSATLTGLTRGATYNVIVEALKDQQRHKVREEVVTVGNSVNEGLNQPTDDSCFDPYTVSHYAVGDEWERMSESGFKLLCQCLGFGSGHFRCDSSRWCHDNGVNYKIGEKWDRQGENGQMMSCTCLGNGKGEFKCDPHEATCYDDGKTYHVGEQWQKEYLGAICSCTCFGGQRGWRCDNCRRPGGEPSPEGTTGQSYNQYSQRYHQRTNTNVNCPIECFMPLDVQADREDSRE", "experiment": "RHAMM binding to fibronectin (ELISA)", "text": "FIG. 21 further illustrates that RHAMM binds to the CS-1 fragment of fibomectin and not to the RGDS sequence which was previously considered to be a critical sequence for fibronectin signaling of matrix protein degradation."}, "[14]": {"test_system": "LR21 cells", "experiment": "podosome formation in LR21 cells treated with exon 4 peptide (cortactin or CAS)", "format": "cell-based", "text": "Podsomome formation was visualized using either fluorescent cortactin or CAS, the latter being a particularly useful marker for podosomes as illustrated by the micrographs in FIG. 17B."}, "[15]": {"biological_target": "erk1 His-6-tagged fusion protein", "experiment": "peptide competition of erk1 His-6 binding to RHAMM v4 beads; D4 and D5 peptides present together"}}, "note": "Where no end group is shown, it is not given here.", "data": [{"molecule": "COc1cccc(-c2cc(=O)c3ccccc3o2)c1N", "note": "[PD09058]", "values": [{"measurement": "cell invasion in vitro", "setting": "[1]", "result": "blocks cell invasion"}, {"measurement": "number of podosomes", "setting": "[2]", "result": "reduces the number of podosomes"}, {"measurement": "cell motility / locomotion", "setting": "[3]", "result": "strongly reduces cellular locomotion"}, {"measurement": "wound repair (cell migration into wounds)", "setting": "[4]", "result": "blocks wound repair"}]}, {"molecule": "CSTMMSRSHKTRSHHV [P-peptide, CSTMMSRSHKTRSHHV]", "values": [{"measurement": "toxicological or lethal effects on animals", "setting": "[5]", "result": "without observing toxicological or lethal effects"}, {"measurement": "toxicity", "setting": "[6]", "result": "absence of any toxicity"}]}, {"molecule": "KQKIKHVVKLKDENSQLKSEVSKLRCQLAKKK [P-32, specific RHAMM region]", "values": [{"measurement": "decrease in mean clinical score", "setting": "[7]", "result": 20, "unit": "%"}]}, {"molecule": "RGGGGGGGR (Peptide that binds a hyalauronan) [peptide D, reference compound]", "values": [{"measurement": "binding to HA", "setting": "[8]", "result": "does not bind HA"}, {"measurement": "infiltration of macrophages in wounded biopsies (Glucosimimidase activity)", "setting": "[9]", "result": "does not inhibit macrophage infiltration"}]}, {"molecule": "RGGGRGGGR (Peptide that binds a hyalauronan) [C]", "values": [{"measurement": "infiltration of macrophages in wounded biopsies (Glucosimimidase activity)", "setting": "[9]", "result": "inhibited the infiltration of macrophages"}]}, {"molecule": "RGGGRGGRR (Peptide that binds a hyalauronan) [peptide B]", "values": [{"measurement": "infiltration of macrophages in wounded biopsies (Glucosimimidase activity)", "setting": "[9]", "result": "inhibited the infiltration of macrophages"}]}, {"molecule": "RGGGRGRRR (Peptide that binds a hyalauronan) [Peptide A]", "values": [{"measurement": "infiltration of macrophages in wounded biopsies (Glucosimimidase activity)", "setting": "[9]", "result": "inhibited the infiltration of macrophages"}, {"measurement": "increase in collagen type la mRNA in lungs", "setting": "[10]; 4 days after injury", "result": "completely inhibited"}, {"measurement": "N-acetyl-β-glucosamimidase activity of BAL cells", "setting": "[10]; 7 days after bleomycin injury", "result": "significantly decreased glucosamimidase activity"}, {"measurement": "lung histology", "setting": "[10]; after bleomycin injury", "result": "normal lung architecture"}, {"measurement": "motility of BAL cells (macrophages)", "setting": "[10]; four days after bleomycin injury, peptide given prior to injury", "result": "significantly lower cell locomotion"}]}, {"molecule": "RHAMM sequence (423-432 AA): RHAMM sequence peptide, amino acid residues 423-432 (SEQ ID NO 24) (KLRSQLVKRKQ; Homo sapien)", "values": [{"measurement": "inhibition of migration of human fibroblasts", "setting": "[11]", "result": "up to 40%"}]}, {"molecule": "SEQ. ID NO: 15: peptide mimicking RHAMM exon 3, used to raise anti-exon 3 antibodies (KLQATQKDLTESKG; listed as Mus musculus)", "values": [{"measurement": "motility of invasive cells", "setting": "[12]", "result": "block the motility of invasive cells"}, {"measurement": "binding of RHAMM to fibronectin", "setting": "[13]", "result": "able to block the binding of intact RHAMM to fibronectin"}]}, {"molecule": "SEQ. ID NO: 16: peptide from murine RHAMM exon 4 (VSIEKEKIDEKCETEKLLEYIQEIS; listed as Mus musculus)", "values": [{"measurement": "formation of podosomes", "setting": "[14]", "result": "blocks the formation of podosomes"}]}, {"molecule": "QEKYNDTAQSLRDVTAQLESV", "note": "[D4 peptide of RHAMM]", "values": [{"measurement": "reduction of erk1 binding to v4", "setting": "[15]", "result": 90, "unit": "%"}]}, {"molecule": "KQKIKHVVKLKDENSQLKSEVSKLRSQLVKRK", "note": "[D5 peptide of RHAMM]", "values": [{"measurement": "reduction of erk1 binding to v4", "setting": "[15]", "result": 90, "unit": "%"}]}]}
